# Measured values taken from PMC8041823, “Structural comparison of Acinetobacter baumannii β-ketoacyl-acyl carrier protein reductases in fatty acid and aryl polyene biosynthesis” (Scientific Reports, 2021).
# Target: T1, AbApeQ (Acinetobacter baumannii, UniProt Z9NHK5QJZ4)
# T1 construct: full-length, pET28a, N-terminal His-tag removed with thrombin, expressed in E. coli BL21 (DE3)
# Assay: X-ray crystallography (co-crystallization)
# Type: binding
# Settings: 1:3 molar ratio of NADPH; 0.2 M potassium sodium tartrate, 20% PEG 3350; active site; NADPH density in two of four molecules
smiles,measurement,value
NC(=O)C1=CN([C@@H]2O[C@H](COP(=O)(O)OP(=O)(O)OC[C@H]3O[C@@H](n4cnc5c(N)ncnc54)[C@H](OP(=O)(O)O)[C@@H]3O)[C@@H](O)[C@H]2O)C=CC1 [NADPH],X-ray crystallography (co-crystallization),We obtained the structure of the AbApeQ–NADPH complex by co-crystallization of AbApeQ and NADPH.
